# Reference: patent US7642270B2, “5-oxo-5,8-dihydro-pyrido-pyrimidine as inhibitors of c-fms kinase” (Janssen Pharmaceutica N.V., priority 2005, dated 2010)
# pIC50: −log10 of the molar value.
# Target: c-fms (Homo sapiens, UniProt P07333)
# Experiment: c-fms autophosphorylation, fluorescence polarization competition immunoassay
# Assay type: biochemical
# Details: 10 nM c-fms, 1 mM ATP, 5 mM MgCl2, 45 min room temperature; averages of three independent measurements; read-out: c-fms Autophosphorylation IC50
# Protocol: Autophosphorylation, Fluorescence Polarization Competition Immunoassay
# The assay buffer used was 100 mM 4-(2-hydroxyethyl)piperazine 1-ethanesulfonic acid (HEPES), pH 7.5, 1 mM 1,4-dithio-DL-threitol (DTT), 0.01% (v/v) Tween-20. Compounds were diluted in assay buffer containing 4% dimethylsulfoxide (DMSO) just prior to the assay. […] The kinase reaction was initiated by adding 2 μL of 5 mM ATP (Sigma) in assay buffer. The final concentrations in the assay were 10 nM c-fms, 1 mM ATP, 5 mM MgCl2, 2% DMSO. Control reactions were ran in each plate: in positive and negative control wells, assay buffer (made 4% in DMSO) was substituted for the compound; in addition, positive control wells received 1.2 μL of 50 mM ethylenediaminetetraaceticacid (EDTA).
# The plates were incubated at room temperature for 45 min. At the end of the incubation, the reaction was quenched with 1.2 μL of 50 mM EDTA (EDTA was not added to the positive control wells at this point; see above). Following a 5-min incubation, each well received 10 μL of a 1:1:3 mixture of anti-phosphotyrosine antibody, 10×, PTK green tracer, 10× (vortexed), FP dilution buffer, respectively (all from PanVera, cat. # P2837). The plate was covered, incubated for 30 min at room temperature and the fluorescence polarization was read on the Analyst.
# The IC50 values shown in Table 1 are averages of three independent measurements.
# Chain of c-fms (P07333 20-972): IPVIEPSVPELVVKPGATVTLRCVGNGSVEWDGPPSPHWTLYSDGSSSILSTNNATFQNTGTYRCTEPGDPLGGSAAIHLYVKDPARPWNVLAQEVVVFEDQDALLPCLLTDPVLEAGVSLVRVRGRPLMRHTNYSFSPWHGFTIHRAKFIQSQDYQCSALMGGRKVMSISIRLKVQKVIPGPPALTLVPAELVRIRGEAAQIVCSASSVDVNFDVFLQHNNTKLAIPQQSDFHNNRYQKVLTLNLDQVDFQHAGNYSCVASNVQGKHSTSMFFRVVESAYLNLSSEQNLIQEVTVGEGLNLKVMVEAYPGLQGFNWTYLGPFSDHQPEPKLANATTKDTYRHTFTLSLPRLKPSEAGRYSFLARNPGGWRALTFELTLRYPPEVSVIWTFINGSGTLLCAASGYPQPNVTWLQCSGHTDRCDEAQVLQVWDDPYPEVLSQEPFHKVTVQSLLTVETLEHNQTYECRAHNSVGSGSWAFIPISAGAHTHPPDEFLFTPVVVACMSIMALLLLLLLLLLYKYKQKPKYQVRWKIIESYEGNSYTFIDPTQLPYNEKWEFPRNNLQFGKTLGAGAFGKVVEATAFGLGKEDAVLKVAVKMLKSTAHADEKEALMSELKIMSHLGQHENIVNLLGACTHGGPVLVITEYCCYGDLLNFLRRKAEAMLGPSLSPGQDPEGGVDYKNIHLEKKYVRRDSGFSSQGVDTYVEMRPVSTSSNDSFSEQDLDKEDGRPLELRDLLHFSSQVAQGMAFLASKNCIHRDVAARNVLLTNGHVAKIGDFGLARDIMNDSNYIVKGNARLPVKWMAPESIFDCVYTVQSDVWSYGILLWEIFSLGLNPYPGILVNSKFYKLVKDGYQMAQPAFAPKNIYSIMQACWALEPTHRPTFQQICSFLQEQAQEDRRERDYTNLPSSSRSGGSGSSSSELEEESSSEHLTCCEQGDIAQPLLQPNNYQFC
row,Compound,pIC50
1,"CNC(=O)c1cn(-c2ccc3c(c2)CCC3)c2nc(Nc3ccc(N4CCNCC4)cc3)ncc2c1=O [Cpd 41, 8-indan-5-yl-5-oxo-2-(4-piperazin-1-yl-phenylamino)-5,8-dihydro-pyrido[2,3-d]pyrimidine-6-carboxylic acid methyl amide]",7.96
2,"CCNC(=O)c1cn(-c2ccc3c(c2)CCC3)c2nc(Nc3ccc(N4CCNCC4)cc3)ncc2c1=O [Cpd 42, 8-indan-5-yl-5-oxo-2-(4-piperazin-1-yl-phenylamino)-5,8-dihydro-pyrido[2,3-d]pyrimidine-6-carboxylic acid ethyl amide]",7.80
3,"CCNC(=O)c1cn(-c2ccc3c(c2)CCC3)c2nc(Nc3ccc(N4CC(C)NC(C)C4)cc3)ncc2c1=O (stereo not drawn) [Cpd 45, 2-[4-(3,5-Dimethyl-piperazin-1-yl)-phenylamino]-8-indan-5-yl-5-oxo-5,8-dihydro-pyrido[2,3-d]pyrimidine-6-carboxylic acid ethyl amide]",7.92
4,"CCNC(=O)c1cn(-c2ccc3c(c2)CCC3)c2nc(Nc3ccc(CCN4CCN(C)CC4)cc3)ncc2c1=O [Cpd 48, 8-Indan-5-yl-2-{4-[2-(4-methyl-piperazin-1-yl)-ethyl]-phenylamino}-5-oxo-5,8-dihydro-pyrido[2,3-d]pyrimidine-6-carboxylic acid ethyl amide]",7.49
5,"CCNC(=O)c1cn(-c2ccc3c(c2)CCC3)c2nc(Nc3ccc(C4CCNCC4)cc3)ncc2c1=O [Cpd 51, 8-Indan-5-yl-5-oxo-2-(4-piperidin-4-yl-phenylamino)-5,8-dihydro-pyrido[2,3-d]pyrimidine-6-carboxylic acid ethyl amide]",7.60
6,"CN1CCN(c2cccc(Nc3ncc4c(=O)c(C(N)=O)cn(C5CCCCC5)c4n3)c2)CC1 [Cpd 63, 8-Cyclohexyl-2-[3-(4-methyl-piperazin-1-yl)-phenylamino]-5-oxo-5,8-dihydro-pyrido[2,3-d]pyrimidine-6-carboxylic acid amide]",7.68

# Next, values leading:
row,pIC50,Compound
1,7.59,"NC(=O)c1cn(C2CCCCC2)c2nc(Nc3ccc(CCN4CCOCC4)cc3)ncc2c1=O [Cpd 57, 8-Cyclohexyl-2-[4-(2-morpholin-4-yl-ethyl)-phenylamino]-5-oxo-5,8-dihydro-pyrido[2,3-d]pyrimidine-6-carboxylic acid amide]"
2,6.92,"CNC(=O)c1cn(C2CCCCC2)c2nc(Nc3ccc(CCN4CCOCC4)cc3)ncc2c1=O [Cpd 58, 8-Cyclohexyl-2-[4-(2-morpholin-4-yl-ethyl)-phenylamino]-5-oxo-5,8-dihydro-pyrido[2,3-d]pyrimidine-6-carboxylic acid methyl amide]"
3,6.72,"CCNC(=O)c1cn(C2CCCCC2)c2nc(Nc3ccc(CCN4CCOCC4)cc3)ncc2c1=O [Cpd 59, 8-Cyclohexyl-2-[4-(2-morpholin-4-yl-ethyl)-phenylamino]-5-oxo-5,8-dihydro-pyrido[2,3-d]pyrimidine-6-carboxylic acid ethyl amide]"
4,7.46,"CN1CCN(c2ccc(Nc3ncc4c(=O)c(C(N)=O)cn(C5CCCCC5)c4n3)cc2)CC1 [Cpd 60, 8-Cyclohexyl-2-[4-(4-methyl-piperazin-1-yl)-phenylamino]-5-oxo-5,8-dihydro-pyrido[2,3-d]pyrimidine-6-carboxylic acid amide]"
5,6.80,"CNC(=O)c1cn(C2CCCCC2)c2nc(Nc3ccc(N4CCN(C)CC4)cc3)ncc2c1=O [Cpd 61, 8-Cyclohexyl-2-[4-(4-methyl-piperazin-1-yl)-phenylamino]-5-oxo-5,8-dihydro-pyrido[2,3-d]pyrimidine-6-carboxylic acid methyl amide]"
6,6.72,"CCNC(=O)c1cn(C2CCCCC2)c2nc(Nc3ccc(N4CCN(C)CC4)cc3)ncc2c1=O [Cpd 62, 8-Cyclohexyl-2-[4-(4-methyl-piperazin-1-yl)-phenylamino]-5-oxo-5,8-dihydro-pyrido[2,3-d]pyrimidine-6-carboxylic acid ethyl amide]"
